Data taken from ChEMBL document CHEMBL1201862, “PubChem BioAssay data set” (2004).
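Grown in 96-well plates, cells were treated for 48 hours with each compound at five concentrations. Insufficient inhibition: endpoint recorded as highest concentration tested. The concentration for 50% growth inhibition is given as GI50.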 Activity calls are given as the source filed them. Rule as the data show it: active = GI50 up to about 1.1 µM and inactive = higher.

Tests used:
Assay in all cases: DTP human tumour cell line panel, 48 h
DMS-114 = tested on: DMS-114
HL-60 = tested on: HL-60
HOP-62 = tested on: HOP-62
HOP-92 = tested on: HOP-92
HT-29 = tested on: HT-29
LOX IMVI = tested on: LOX IMVI
MOLT-4 = tested on: MOLT-4
NCI-H23 = tested on: NCI-H23
NCI-H460 = tested on: NCI-H460
RPMI-8226 = tested on: RPMI-8226
SK-OV-3 = tested on: SK-OV-3
SNB-75 = tested on: SNB-75
UACC-257 = tested on: UACC-257
UACC-62 = tested on: UACC-62
SR = tested on: SR

Measured: GI50

CC1(C)C(=O)N(CCCCCCN2C(=O)C(C)(C)c3ccccc32)c2ccccc21
inactive: DMS-114 21.6 µM | HL-60 2.04 µM | HOP-62 80.7 µM | HOP-92 42.8 µM | HT-29 19 µM | LOX IMVI 22 µM | MOLT-4 33.8 µM | NCI-H23 42.6 µM | NCI-H460 54.3 µM | RPMI-8226 23 µM | SK-OV-3 > 100 µM | SNB-75 39.1 µM | UACC-257 21.8 µM | UACC-62 22.9 µM

CCOC(=O)C(=O)Nc1ccccc1C(C)C
inactive: DMS-114 > 100 µM | HL-60 > 100 µM | HOP-62 > 100 µM | HOP-92 > 100 µM | HT-29 > 100 µM | MOLT-4 > 100 µM | NCI-H23 > 100 µM | NCI-H460 > 100 µM | RPMI-8226 > 100 µM | SK-OV-3 > 100 µM | SNB-75 > 100 µM | SR > 100 µM | UACC-257 > 100 µM | UACC-62 > 100 µM

COc1ccc(CN2C(=O)C(Cc3cc(OC)c(OC)c(C)c3OC)NC(=O)/C2=C/c2cc(OC)c(OC)c(C)c2OC)cc1 (centres undefined)
inactive: DMS-114 33.2 µM | HL-60 18.3 µM | HOP-62 50.9 µM | HOP-92 29 µM | HT-29 24.2 µM | LOX IMVI 41.8 µM | MOLT-4 24.8 µM | NCI-H23 43.1 µM | NCI-H460 9.98 µM | RPMI-8226 28.3 µM | SK-OV-3 34 µM | SNB-75 33.5 µM | SR 20.3 µM | UACC-257 37.5 µM | UACC-62 33.7 µM

CC1=CP(=O)(OC(C)C)CC(C)=C1Cl (centres undefined)
inactive: DMS-114 > 100 µM | HL-60 > 100 µM | HOP-62 > 100 µM | HOP-92 > 100 µM | HT-29 64.4 µM | LOX IMVI > 100 µM | MOLT-4 32.7 µM | NCI-H23 > 100 µM | NCI-H460 > 100 µM | RPMI-8226 94.8 µM | SK-OV-3 > 100 µM | SNB-75 > 100 µM | SR 41.1 µM | UACC-257 > 100 µM | UACC-62 > 100 µM

Cn1nc(-c2ccccc2)c(C(=O)/C=C/c2ccc(F)cc2)c(N2CCOCC2)c1=O
inactive: DMS-114 15.9 µM | HL-60 14.6 µM | HOP-92 15.2 µM | HT-29 15.9 µM | LOX IMVI 21.1 µM | MOLT-4 14.2 µM | NCI-H23 > 10 µM | NCI-H460 24.4 µM | RPMI-8226 4.57 µM | SK-OV-3 32.7 µM | UACC-62 18.1 µM

COc1ccc2cccc(C(=O)c3ccc(C)c4c3CCC4)c2c1
inactive: DMS-114 32.4 µM | HL-60 14.6 µM | HOP-62 24.9 µM | HT-29 33 µM | LOX IMVI 19.5 µM | MOLT-4 27.6 µM | NCI-H23 34.1 µM | NCI-H460 20.3 µM | SK-OV-3 64.3 µM | SNB-75 > 100 µM | SR 23.6 µM | UACC-257 30.1 µM | UACC-62 25.4 µM

CN1C(=O)CCC2[C@@H]3CC=C4C[C@@H](O)CC[C@]4(C)C3CC[C@@]21C (some centres undefined)
inactive: DMS-114 16.4 µM | HL-60 11.5 µM | HOP-62 45.9 µM | HT-29 36.6 µM | MOLT-4 18.5 µM | NCI-H23 25.4 µM | NCI-H460 45 µM | RPMI-8226 20.8 µM | SK-OV-3 > 100 µM | SNB-75 > 100 µM | UACC-257 20.3 µM | UACC-62 62.4 µM

O=C(N[C@H]1CC2(C=C(I)C(=O)C(I)=C2)OC1=O)OCc1ccccc1
inactive: DMS-114 19.8 µM | HL-60 3.93 µM | HOP-62 22.6 µM | HT-29 17.5 µM | LOX IMVI 16 µM | NCI-H23 17.8 µM | NCI-H460 21.1 µM | RPMI-8226 26.2 µM | SK-OV-3 34.8 µM | SNB-75 19.6 µM | UACC-257 16.4 µM | UACC-62 16.5 µM

Cc1c(C(=O)O)oc2ccc([N+](=O)[O-])cc12
inactive: DMS-114 > 100 µM | HL-60 > 100 µM | HOP-62 > 100 µM | HOP-92 72.4 µM | HT-29 > 100 µM | LOX IMVI > 100 µM | MOLT-4 > 10 µM | NCI-H23 > 100 µM | NCI-H460 > 100 µM | RPMI-8226 > 10 µM | SK-OV-3 > 100 µM | UACC-257 > 100 µM | UACC-62 > 100 µM

CCOC(=O)C1=C(C)NC(=S)NC1c1ccccc1 (centres undefined)
inactive: DMS-114 > 39.9 µM | HL-60 71.8 µM | HOP-62 > 100 µM | HOP-92 > 100 µM | HT-29 > 96.4 µM | LOX IMVI > 63.7 µM | MOLT-4 59.6 µM | NCI-H23 > 100 µM | NCI-H460 > 59.3 µM | RPMI-8226 33.9 µM | SK-OV-3 > 100 µM | SNB-75 > 100 µM | SR 21.8 µM | UACC-257 > 100 µM | UACC-62 > 71.3 µM
